Test results published in US6906205B2, “Spiro and dispiro 1,2,4-trioxolane antimalarials” (Medicines for Malaria Venture MMV, priority 2002, dated 2005).
Values after ≈ are worked out from the molar mass of the structure shown.

Tests used:
[1] = system: ANKA strain of P. berghei; experiment: single dose STI in vivo screen in infected mice; parameters: species or system Plasmodium berghei; conditions: for Activity (%) po / Activity (%) sc / Activity (%) SSVpo: percent reduction in parasitemia day 3 post-infection, mice; for Activity (%) po / Survival (days) po: single 10 mg/kg po in 3% ethanol and 7% Tween 80; for Activity (%) sc / Survival (days) sc: single 10 mg/kg sc in 3% ethanol and 7% Tween 80; for Activity (%) SSVpo: single po dose in standard suspending vehicle (SSV); for Survival (days) po / Survival (days) sc / Survival (days) SSVpo: untreated control 5.6 ± 0.3; for Survival (days) SSVpo: single po dose in SSV
How it was run: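 Groups of 3-5 Moro SPF or NMRI mice infected with the ANKA strain of P. berghei received a single dose of trioxolane on day one post-infection. The compound was given in 3% ethanol and 7% Tween 80 or in SSV (0.5% w/v CMC, 0.5% v/v benzyl alcohol, 0.4% v/v Tween 80, 0.9% w/v sodium chloride in water). Antimalarial activity was scored as percent reduction in parasitemia on day three and as survival time versus untreated controls. Survival to day 30 counted as cure.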

[2] = system: P. falciparum NF54 strain (sensitive to standard antimalarials); experiment: semiautomated microdilution assay, [3H]-hypoxanthine incorporation, NF54 strain; assay type: cell-based, Plasmodium falciparum; conditions: NF54 strain, 72 h incubation
How it was run: (§1)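 Intraerythrocytic stages from unsynchronised stock cultures are exposed to test compounds in a semiautomated microdilution format, and fifty percent inhibitory concentrations are then fitted by logit regression.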

[3] = system: P. falciparum K1 strain (Thailand resistant to chloroquine); experiment: semiautomated microdilution assay, [3H]-hypoxanthine incorporation, K1 strain; assay type: cell-based, Plasmodium falciparum; conditions: K1 strain, 72 h incubation
How it was run: as §1

| SMILES | Activity (%) po [1] | Activity (%) sc [1] | Activity (%) SSVpo [1] | Survival (days) po [1] [days] | Survival (days) sc [1] [days] | Survival (days) SSVpo [1] [days] | IC50 (ng/ml) NF54 [2] | IC50 (ng/ml) K1 [3] |
| --- | --- | --- | --- | --- | --- | --- | --- | --- |
| COC(=O)c1cn(C[C@H]2CC[C@]3(CC2)OOC2(O3)C3CC4CC(C3)CC2C4)cn1 (stereo partly shown) [OZ224] | 0% | 20% | 5% | 6.0 | 5.7 | 5.7 | 3.0 ng/mL (≈ 7.45 nM) | 2.0 ng/mL (≈ 4.97 nM) |
| O=C(O)c1cn(C[C@H]2CC[C@]3(CC2)OOC2(O3)C3CC4CC(C3)CC2C4)cn1 (stereo partly shown) [OZ225] | 0% | 17% | 0% | 5.7 | 6.3 | 5.7 | > 10 ng/mL | 7.3 ng/mL (≈ 18.8 nM) |
| [N-]=[N+]=NCC[C@H]1CC[C@]2(CC1)OOC1(O2)C2CC3CC(C2)CC1C3 (stereo partly shown) [OZ228] | 99.94% | 99.94% | 28% | 10.3 | 14.0 | 6.0 | 2.1 ng/mL (≈ 6.3 nM) | 2.0 ng/mL (≈ 6 nM) |
| O=C(NC[C@H]1CC[C@]2(CC1)OOC1(O2)C2CC3CC(C2)CC1C3)c1ccccc1C(=O)NC[C@H]1CC[C@]2(CC1)OOC1(O2)C2CC3CC(C2)CC1C3 (stereo partly shown) [OZ230] | 0/0/0% | 0/0/0% | 0/0/0% | 5.3 | 5.7 | 5.7 | 3.6 ng/mL (≈ 5.02 nM) | 3.9 ng/mL (≈ 5.44 nM) |
| O=C(O)c1cncn1C[C@H]1CC[C@]2(CC1)OOC1(O2)C2CC3CC(C2)CC1C3 (stereo partly shown) [OZ231] | 0/0/0% | 0/0/0% | 0/0/0% | 5.3 | 6.0 | 5.7 | >10/>10 ng/ml | >10/>10 ng/ml |
| CN(C)C[C@H]1CC[C@]2(CC1)OOC1(O2)C2CC3CC(C2)CC1C3 (stereo partly shown) [OZ232] | 76% | 99.94% | 74% | 8.0 | 8.7 | 7.3 | 0.50 ng/mL (≈ 1.56 nM) | 0.30 ng/mL (≈ 0.933 nM) |
| COC(=O)c1ncnn1C[C@H]1CC[C@]2(CC1)OOC1(O2)C2CC3CC(C2)CC1C3 (stereo partly shown) [OZ233] | 69% | 99.66% | 76% | 7.0 | 8.3 | 7.7 | 1.9 ng/mL (≈ 4.71 nM) | 1.7 ng/mL (≈ 4.21 nM) |
| COC(=O)c1ncn(C[C@H]2CC[C@]3(CC2)OOC2(O3)C3CC4CC(C3)CC2C4)n1 (stereo partly shown) [OZ234] | 12% | 0% | 0% | 6.0 | 6.3 | 6.0 | 3.6 ng/mL (≈ 8.92 nM) | 3.0 ng/mL (≈ 7.44 nM) |
| NC(=O)CN(CC(N)=O)C[C@H]1CC[C@]2(CC1)OOC1(O2)C2CC3CC(C2)CC1C3 (stereo partly shown) [OZ236] | 89% | 98.61% | 86% | 6.3 | 7.7 | 7.7 | 2.0/2.0 ng/ml | 2.0/2.0 ng/ml |
| N=C(N)NC[C@H]1CC[C@]2(CC1)OOC1(O2)C2CC3CC(C2)CC1C3 (stereo partly shown) [OZ237] | 5% | 52% | 9% | 6.0 | 6.7 | 6.0 | 7.1 ng/mL (≈ 21.2 nM) | 5.7 ng/mL (≈ 17 nM) |
| NC(=O)C[C@H]1CC[C@]2(CC1)OOC1(O2)C2CC3CC(C2)CC1C3 (stereo partly shown) [OZ243] | 87% | 70% | 97% | 7.3 | 6.3 | 8.7 | 1.1 ng/mL (≈ 3.42 nM) | 0.91 ng/mL (≈ 2.83 nM) |
| O=C(C[C@H]1CC[C@]2(CC1)OOC1(O2)C2CC3CC(C2)CC1C3)N1CCN(c2ccccc2)CC1 (stereo partly shown) [OZ244] | 6% | 18% | 0% | 5.7 | 6.3 | 5.3 | 4.2 ng/mL (≈ 9 nM) | 4.0 ng/mL (≈ 8.57 nM) |
| OC1(c2nccs2)CCC2(CC1)OOC1(O2)C2CC3CC(C2)CC1C3 (stereo not shown) [OZ247] | 57% | 99.85% | 27% | 6.3 | 9.0 | 6.0 | 2.3 ng/mL (≈ 6.33 nM) | 1.8 ng/mL (≈ 4.95 nM) |
| c1c[nH]c([C@H]2CC[C@]3(CC2)OOC2(O3)C3CC4CC(C3)CC2C4)n1 (stereo partly shown) [OZ251] | 29% | 99.87% | 6% | 6.7 | 9.0 | 6.0 | 0.35 ng/mL (≈ 1.06 nM) | 0.60 ng/mL (≈ 1.82 nM) |
| c1csc(NC[C@H]2CC[C@]3(CC2)OOC2(O3)C3CC4CC(C3)CC2C4)n1 (stereo partly shown) [OZ252] | 98.91% | 99.82% | 99.49% | 8.3 | 9.3 | 9.0 | 2.2 ng/mL (≈ 5.84 nM) | 2.3 ng/mL (≈ 6.11 nM) |
| C1C2CC3CC1CC(C2)C31OO[C@]2(CC[C@@H](CNC3CC3)CC2)O1 (stereo partly shown) [OZ253] | 75% | 99.82% | 59% | 7.0 | 9.3 | 6.7 | 0.45 ng/mL (≈ 1.35 nM) | 0.56 ng/mL (≈ 1.68 nM) |
| C1C2CC3CC1CC(C2)C31OO[C@]2(CC[C@@H](CN(C[C@H]3CC[C@]4(CC3)OOC3(O4)C4CC5CC(C4)CC3C5)C3CC3)CC2)O1 (stereo partly shown) [OZ254] | 27% | 2% | 11% | 6.0 | 5.7 | 5.7 | 57 ng/mL (≈ 93.5 nM) | > 100 ng/mL |
| O=C(NC[C@H]1CC[C@]2(CC1)OOC1(O2)C2CC3CC(C2)CC1C3)c1ccncc1 (stereo partly shown) [OZ255] | 99.61% | 99.92% | 99.54% | 9.0 | 10.0 | 8.7 | 1.1 ng/mL (≈ 2.76 nM) | 2.2 ng/mL (≈ 5.52 nM) |
| CS(=O)(=O)NC[C@H]1CC[C@]2(CC1)OOC1(O2)C2CC3CC(C2)CC1C3 (stereo partly shown) [OZ257] | 99.00% | 99.84% | 99.49% | 8.3 | 9.7 | 7.7 | 21 ng/mL (≈ 56.5 nM) | 42 ng/mL (≈ 113 nM) |
| Clc1ccc2c(NCCNC3CCC4(CC3)OOC3(O4)C4CC5CC(C4)CC3C5)ccnc2c1 (stereo not shown) [OZ258] | 75% | 99.95% | 70% | 6.0 | 10.7 | 6.0 | 5.2 ng/mL (≈ 10.7 nM) | 5.8 ng/mL (≈ 12 nM) |
| CCOC(=O)CCC[C@H]1CC[C@]2(CC1)OOC1(O2)C2CC3CC(C2)CC1C3 (stereo partly shown) [OZ260] | 72% | 81% | 51% | 6.7 | 7.7 | 7.0 | 4.3 ng/mL (≈ 11.4 nM) | 5.6 ng/mL (≈ 14.8 nM) |
| O=C(O)CCC[C@H]1CC[C@]2(CC1)OOC1(O2)C2CC3CC(C2)CC1C3 (stereo partly shown) [OZ261] | 61% | 92% | 47% | 7.0 | 8.0 | 7.0 | 18 ng/mL (≈ 51.4 nM) | 39 ng/mL (≈ 111 nM) |
| CC(=O)NC[C@H]1CC[C@]2(CC1)OOC1(O2)C2CC3CC(C2)CC1C3 (stereo partly shown) [OZ262] | 96% | 99.39% | 98% | 11.7 | 10.0 | 12.3 | 0.84 ng/mL (≈ 2.5 nM) | 0.63 ng/mL (≈ 1.88 nM) |
